The values that follow come from patent US11926826B2, “Twist signaling inhibitor compositions and methods of using the same” (City of Hope, priority 2016, dated 2024).

What all share (assay type): cell-based, human
The subject of series [1] is SUM 1315 cells. The series can be described thus: Wound healing assay, SUM 1315. The settings on record: YTZ3-15 transfection; compared to siQ. The protocol:
Wound Healing Assay. To examine direction cell migration in vitro wound healing assays were performed as described previously. In summary, SUM 1315 cells (parental, eGFP+luc, shScram, shTwistA, and shTwistB) were grown in the conditions described above (2.1) in 6-well tissue culture plates. Once cells reached 80% confluency, a sterile 200 μl pipette tip was used to scratch a line in the monolayer of cells. Images were taken immediately after the scratch and at several time points thereafter using a Nikon TE-2000S microscope and SPOT Advanced software (Diagnostic Instruments, Sterling Heights, MI). Care was taken to always capture images in the same location for each time point. Additionally, SUM 1315 cells were transfected with siQ, siTwistA, or siTwistB using YTZ3-15 at a 50 nM final concentration. Cells were incubated with YTZ3-15+siRNA for 24 hours at 37° C., 5% CO2, and 90% humidity in a tissue culture incubator; the plates were then scratched with the 200 μl pipette tip.

For series [2], the system named is TWIST1. The series can be described thus: TWIST1 knockdown after Lipofectamine 2000 transfection in SUM 1315. The protocol:
(§1) Cell Culture, Transfection, and Stable Cell Line Production. SUM 1315 breast cancer cells were obtained from ATCC (Manassas, VA). Cells were maintained at 37° C., 5% CO2, and 90% humidity in a tissue culture incubator. Media for SUM 1315 cells consisted of a 50-50 mixture of DMEM and F12 media, supplemented with 5 μg/ml insulin, 10 ng/ml EGF, 5% fetal bovine serum, and 1% penicillin/streptomycin. Cells were passaged using 0.25% trypsin (Genesee Scientific, San Diego, CA) every 2-3 days as they reached confluency. […]
(§2) Quantitative PCR. […] RNA quantity and quality was measured and analyzed (with 260/280 nm and 260/230 nm spectra measurements) using a NanoDrop ND-1000 (Thermo Fisher Scientific, Waltham, MA). […] Quantitative RT-PCR was performed in quadruplicate using Maxima SYBR Green Master Mix (Thermo Fisher Scientific, Waltham, MA) in 25 μl reactions. […] Data were analyzed using Bio-Rad iQ5 software using the 2^−ΔΔ^Ct method and normalized to Actin. […]
Western Blot. […] Cells were pelleted, lysed in RIPA buffer, and protein concentration was determined using the BCA Assay (Thermo Fisher Scientific, Waltham, MA). […]

Series [3] relates to Vimentin mRNA. The series can be described thus: qPCR after YTZ3-15 delivery of siTwist in SUM 1315: Vimentin. The settings on record: delivered via YTZ3-15; after one day. The protocol: as §1, §2
On the technique in general: Real-time PCR tracks product formation cycle by cycle.

Turning to “si419: anti-TWIST siRNA; passenger 5′-GGACAAGCUGAGCAAGAUU-3′ (SEQ ID No: 1), guide 5′-AAUCUUGCUCAGCUUGUCCUU-3′ (SEQ ID No: 2) (listed as RNA, chemistry not fully specified)”, the directional migration entry in series [1] is recorded as “decreased directional migration”. Besides, the “TWIST1 knockdown (protein and mRNA)” value in series [2] was “knockdown of TWIST1”. In series [3], the “Vimentin mRNA level” value is on record as “nearly undetectable”.
